# Legend:
# Experiment in all cases: cells
# M14 = assay type: functional, cell-based; settings: Homo sapiens;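 note: growth inhibition of M14 cells, read out with a cell viability assay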
# Description: SANGER: Inhibition of human M14 cell growth in a cell viability assay.
# T47D = assay type: functional, cell-based; settings: Homo sapiens;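 note: growth inhibition of human T47D cells, measured with a cell viability assay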
# Description: SANGER: Inhibition of human T47D cell growth in a cell viability assay.
# RPMI-7951 = assay type: functional, cell-based; settings: Homo sapiens
# Description: SANGER: Inhibition of human RPMI-7951 cell growth in a cell viability assay.
# SAOS-2 = assay type: functional, cell-based; settings: Homo sapiens;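 note: growth inhibition of human Saos-2 cells determined by a cell viability assay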
# Description: SANGER: Inhibition of human Saos-2 cell growth in a cell viability assay.
# SW1417 = assay type: functional, cell-based; settings: Homo sapiens;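 note: growth inhibition of human SW1417 cells, read out with a cell viability assay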
# Description: SANGER: Inhibition of human SW1417 cell growth in a cell viability assay.
# NCI-H358 = assay type: functional, cell-based; settings: Homo sapiens;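 note: growth inhibition of NCI-H358 human cells, read out with a cell viability assay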
# Description: SANGER: Inhibition of human NCI-H358 cell growth in a cell viability assay.
# NCI-H661 = assay type: functional, cell-based; settings: Homo sapiens;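 note: cell viability assay read-out, IC50 being the concentration that inhibits growth of the cells by half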
# Description: SANGER: Inhibition of human NCI-H661 cell growth in a cell viability assay.
# HN = assay type: functional, cell-based; settings: Homo sapiens
# Description: SANGER: Inhibition of human HN cell growth in a cell viability assay.
# NCI-H630 = assay type: functional, cell-based; settings: Homo sapiens;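 note: growth inhibition of NCI-H630 cells, read out with a cell viability assay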
# Description: SANGER: Inhibition of human NCI-H630 cell growth in a cell viability assay.
# SW756 = assay type: functional, cell-based; settings: Homo sapiens;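 note: growth inhibition of human SW756 cells, read out with a cell viability assay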
# Description: SANGER: Inhibition of human SW756 cell growth in a cell viability assay.
# KYSE-270 = assay type: functional, cell-based; settings: Homo sapiens;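 note: cell growth inhibition measured with a viability assay in the human KYSE-270 line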
# Description: SANGER: Inhibition of human KYSE-270 cell growth in a cell viability assay.
# SN12C = assay type: functional, cell-based; settings: Homo sapiens;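 note: growth inhibition of human SN12C cells, measured by a cell viability assay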
# Description: SANGER: Inhibition of human SN12C cell growth in a cell viability assay.
# EW-22 = assay type: functional, cell-based; settings: Homo sapiens;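 note: growth inhibition of the EW-22 cell line, measured with a cell viability readout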
# Description: SANGER: Inhibition of human EW-22 cell growth in a cell viability assay.
# CAL-27 = assay type: functional, cell-based; settings: Homo sapiens;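 note: Viability-based readout, IC50 reflecting inhibition of CAL-27 cell growth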
# Description: SANGER: Inhibition of human CAL-27 cell growth in a cell viability assay.
# ESS-1 = assay type: functional, cell-based; settings: Homo sapiens;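 note: growth inhibition of human ESS-1 cells, read out by a cell viability assay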
# Description: SANGER: Inhibition of human ESS-1 cell growth in a cell viability assay.
# MeWo = assay type: functional, cell-based; settings: Homo sapiens;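 note: growth inhibition of MeWo cells, determined by a cell viability readout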
# Description: SANGER: Inhibition of human Mewo cell growth in a cell viability assay.
# KOSC-2 = assay type: functional, cell-based; settings: Homo sapiens;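 note: growth inhibition of KOSC-2 cells, read out by a cell viability assay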
# Description: SANGER: Inhibition of human KOSC-2 cell growth in a cell viability assay.
# D-542MG = assay type: functional, cell-based; settings: Homo sapiens
# Description: SANGER: Inhibition of human D-542MG cell growth in a cell viability assay.
# NB17 = assay type: functional, cell-based, Homo sapiens; settings: Homo sapiens, NB17;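 note: growth inhibition of NB17 cells, read out with a cell viability assay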
# Description: SANGER: Inhibition of human NB17 cell growth in a cell viability assay.
# PANC-08-13 = assay type: functional, cell-based; settings: Homo sapiens;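 note: cell growth inhibition, measured with a cell viability assay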
# Description: SANGER: Inhibition of human PANC-08-13 cell growth in a cell viability assay.
# SW13 = assay type: functional, cell-based; settings: Homo sapiens;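 note: IC50 is inhibition of SW13 cell growth, read out with a cell viability assay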
# Description: SANGER: Inhibition of human SW13 cell growth in a cell viability assay.
# BEN = assay type: functional, cell-based; settings: Homo sapiens;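 note: growth inhibition of the BEN cell line, read out with a cell viability assay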
# Description: SANGER: Inhibition of human BEN cell growth in a cell viability assay.
# ASPC1 = assay type: functional, cell-based; settings: Homo sapiens;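 note: growth inhibition of AsPC-1 cells, read out with a cell viability assay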
# Description: SANGER: Inhibition of human AsPC-1 cell growth in a cell viability assay.
# RVH-421 = assay type: functional, cell-based; settings: Homo sapiens
# Description: SANGER: Inhibition of human RVH-421 cell growth in a cell viability assay.
# Calu-3 = assay type: functional, cell-based; settings: Homo sapiens;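 note: growth inhibition of human Calu-3 cells, determined with a cell viability assay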
# Description: SANGER: Inhibition of human Calu-3 cell growth in a cell viability assay.
# OVCAR-8 = assay type: functional, cell-based; settings: Homo sapiens;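 note: growth inhibition of human OVCAR-8 cells, read out by a cell viability assay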
# Description: SANGER: Inhibition of human OVCAR-8 cell growth in a cell viability assay.
# MKN-45 = assay type: functional, cell-based; settings: Homo sapiens;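 note: growth inhibition of human MKN-45 cells, measured with a cell viability assay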
# Description: SANGER: Inhibition of human MKN45 cell growth in a cell viability assay.
# BCPAP = assay type: functional, cell-based; settings: Homo sapiens;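 note: growth inhibition of BCPAP cells, read out in a cell viability assay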
# Description: SANGER: Inhibition of human BCPAP cell growth in a cell viability assay.
# SW1463 = assay type: functional, cell-based; settings: Homo sapiens;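 note: growth inhibition of SW1463 cells, determined with a cell viability assay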
# Description: SANGER: Inhibition of human SW1463 cell growth in a cell viability assay.
# SK-HEP1 = assay type: functional, cell-based, SK-HEP-1; settings: Homo sapiens;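 note: cell viability readout used to quantify reduction in proliferation of human SK-HEP-1 cells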
# Description: SANGER: Inhibition of human SK-HEP-1 cell growth in a cell viability assay.
# SW837 = assay type: functional, cell-based; settings: Homo sapiens;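 note: growth inhibition of SW837 cells, determined with a cell viability assay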
# Description: SANGER: Inhibition of human SW837 cell growth in a cell viability assay.
# NCI-H2052 = assay type: functional, cell-based; settings: Homo sapiens;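 note: growth inhibition of NCI-H2052 cells, read out with a cell viability assay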
# Description: SANGER: Inhibition of human NCI-H2052 cell growth in a cell viability assay.
# UO-31 = assay type: functional, cell-based; settings: Homo sapiens;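 note: cell viability assay measuring inhibition of cell growth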
# Description: SANGER: Inhibition of human U031 cell growth in a cell viability assay.
# HT1197 = assay type: functional, cell-based, HT-1197; settings: Homo sapiens
# Description: SANGER: Inhibition of human HT-1197 cell growth in a cell viability assay.
# Daoy = assay type: functional, cell-based; settings: Homo sapiens;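 note: daoy cell growth inhibition, read out as cell viability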
# Description: SANGER: Inhibition of human Daoy cell growth in a cell viability assay.
# LN-405 = assay type: functional, cell-based; settings: Homo sapiens
# Description: SANGER: Inhibition of human LN-405 cell growth in a cell viability assay.
# LCLC-103H cell line = assay type: functional, cell-based; settings: Homo sapiens
# Description: SANGER: Inhibition of human LCLC-103H cell growth in a cell viability assay.
# CWR22R = assay type: functional, cell-based; settings: Homo sapiens, 22Rv1;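 note: growth inhibition of 22Rv1 cells, read out with a cell viability assay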
# Description: SANGER: Inhibition of human 22RV1 cell growth in a cell viability assay.
# MEL-JUSO = assay type: functional, cell-based; settings: Homo sapiens;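 note: growth inhibition of human MEL-JUSO cells, read out with a cell viability assay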
# Description: SANGER: Inhibition of human MEL-JUSO cell growth in a cell viability assay.
# A673 = assay type: functional, cell-based; settings: Homo sapiens;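 note: growth inhibition of human A673 cells, read out through a cell viability assay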
# Description: SANGER: Inhibition of human A673 cell growth in a cell viability assay.
# NCI-H510A = assay type: functional, cell-based, Homo sapiens; settings: Homo sapiens, NCI-H510A;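 note: growth inhibition of NCI-H510A cells, read out with a cell viability assay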
# Description: SANGER: Inhibition of human NCI-H510A cell growth in a cell viability assay.
# ChaGo-K-1 = assay type: functional, cell-based; settings: Homo sapiens;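 note: growth inhibition of ChaGo-K-1 cells, read out with a cell viability assay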
# Description: SANGER: Inhibition of human ChaGo-K-1 cell growth in a cell viability assay.
# MKN-7 = assay type: functional, cell-based; settings: Homo sapiens;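 note: growth inhibition of MKN-7 cells, read out with a cell viability assay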
# Description: SANGER: Inhibition of human MKN7 cell growth in a cell viability assay.
# HuP-T3 = assay type: functional, cell-based; settings: Homo sapiens;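 note: HuP-T3 cell growth inhibition, read out with a cell viability assay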
# Description: SANGER: Inhibition of human HuP-T3 cell growth in a cell viability assay.
# 8305C = assay type: functional, cell-based; settings: Homo sapiens
# Description: SANGER: Inhibition of human 8305C cell growth in a cell viability assay.
# JEG-3 = assay type: functional, cell-based; settings: Homo sapiens;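 note: growth inhibition of human JEG-3 cells, read out with a cell viability assay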
# Description: SANGER: Inhibition of human JEG-3 cell growth in a cell viability assay.
smiles,measurement,setting,value
NC(=O)c1ccc(N(C(N)=O)c2c(F)cccc2F)nc1-c1ccc(F)cc1F [VX-702],IC50,M14,> 2000 nM
same,IC50,T47D,> 2000 nM
same,IC50,RPMI-7951,> 2000 nM
same,IC50,SAOS-2,> 2000 nM
same,IC50,SW1417,> 2000 nM
same,IC50,NCI-H358,> 2000 nM
same,IC50,NCI-H661,> 2000 nM
same,IC50,HN,> 2000 nM
same,IC50,NCI-H630,> 2000 nM
same,IC50,SW756,> 2000 nM
same,IC50,KYSE-270,> 2000 nM
same,IC50,SN12C,> 2000 nM
same,IC50,EW-22,> 2000 nM
same,IC50,CAL-27,> 2000 nM
same,IC50,ESS-1,> 2000 nM
same,IC50,MeWo,> 2000 nM
same,IC50,KOSC-2,> 2000 nM
same,IC50,D-542MG,> 2000 nM
same,IC50,NB17,> 2000 nM
same,IC50,PANC-08-13,> 2000 nM
same,IC50,SW13,> 2000 nM
same,IC50,BEN,> 2000 nM
same,IC50,ASPC1,> 2000 nM
same,IC50,RVH-421,> 2000 nM
same,IC50,Calu-3,> 2000 nM
same,IC50,OVCAR-8,> 2000 nM
same,IC50,MKN-45,> 2000 nM
same,IC50,BCPAP,> 2000 nM
same,IC50,SW1463,> 2000 nM
same,IC50,SK-HEP1,> 2000 nM
same,IC50,SW837,> 2000 nM
same,IC50,NCI-H2052,> 2000 nM
same,IC50,UO-31,> 2000 nM
same,IC50,HT1197,> 2000 nM
same,IC50,Daoy,> 2000 nM
same,IC50,LN-405,> 2000 nM
same,IC50,LCLC-103H cell line,> 2000 nM
same,IC50,CWR22R,> 2000 nM
same,IC50,MEL-JUSO,> 2000 nM
same,IC50,A673,> 2000 nM
same,IC50,NCI-H510A,> 2000 nM
same,IC50,ChaGo-K-1,> 2000 nM
same,IC50,MKN-7,> 2000 nM
same,IC50,HuP-T3,> 2000 nM
same,IC50,8305C,> 2000 nM
same,IC50,JEG-3,> 2000 nM
CN(NC(=O)CC(=O)NN(C)C(=S)c1ccccc1)C(=S)c1ccccc1 [ELESCLOMOL],IC50,M14,122 nM
same,IC50,T47D,16.8 nM
same,IC50,RPMI-7951,36.6 nM
same,IC50,SAOS-2,11.1 nM
same,IC50,SW1417,> 200 nM
same,IC50,NCI-H358,13.6 nM
same,IC50,NCI-H661,12.5 nM
same,IC50,HN,15.4 nM
same,IC50,NCI-H630,> 200 nM
same,IC50,SW756,4.13 nM
same,IC50,KYSE-270,37.1 nM
same,IC50,SN12C,28.4 nM
same,IC50,EW-22,74.7 nM
same,IC50,CAL-27,33.4 nM
same,IC50,ESS-1,102 nM
same,IC50,MeWo,26.3 nM
same,IC50,KOSC-2,5.45 nM
same,IC50,D-542MG,> 200 nM
same,IC50,NB17,8.94 nM
same,IC50,PANC-08-13,9.63 nM
same,IC50,SW13,7.69 nM
same,IC50,BEN,116 nM
same,IC50,ASPC1,37.7 nM
same,IC50,RVH-421,76.2 nM
same,IC50,Calu-3,> 200 nM
same,IC50,OVCAR-8,3.99 nM
same,IC50,MKN-45,28.7 nM
same,IC50,BCPAP,1.34 nM
same,IC50,SW1463,> 200 nM
same,IC50,SK-HEP1,> 200 nM
same,IC50,SW837,107 nM
same,IC50,NCI-H2052,63.3 nM
same,IC50,UO-31,13.4 nM
same,IC50,HT1197,21.8 nM
same,IC50,Daoy,16.8 nM
same,IC50,LN-405,87.8 nM
same,IC50,LCLC-103H cell line,> 200 nM
same,IC50,CWR22R,11.3 nM
same,IC50,MEL-JUSO,10.6 nM
same,IC50,A673,11.6 nM
same,IC50,NCI-H510A,12.4 nM
same,IC50,ChaGo-K-1,5.4 nM
same,IC50,MKN-7,61 nM
same,IC50,HuP-T3,55.8 nM
same,IC50,8305C,192 nM
same,IC50,JEG-3,8.84 nM

# Reference: ChEMBL document CHEMBL1201861, “Genomics of Drug Sensitity in Cancer screening data, Wellcome Trust Sanger Institute”
